Data as given in PubChem BioAssay AID651581 (Sanford-Burnham Center for Chemical Genomics, 2012).
Calls of active or inactive are those of the source. The rule behind the calls is not given here.

Key:
[1] = biological target: Endothelial PAS domain-containing protein 1 (Homo sapiens) (UniProt Q99814); assay: potency against HIF reporters across cell lines – luminescence, panel, selectivity assay for HIF-2a inhibitor project, dose response (AID 651581); details: human cell HIF reporter
[2] = biological target: Hypoxia-inducible factor 1-alpha (Homo sapiens) (UniProt Q16665); assay: as above; details: human cell HIF reporter, HIF-1a
Hypoxia-inducible factor 1-alpha (Homo sapiens), sequence (Q16665 whole entry, looked up): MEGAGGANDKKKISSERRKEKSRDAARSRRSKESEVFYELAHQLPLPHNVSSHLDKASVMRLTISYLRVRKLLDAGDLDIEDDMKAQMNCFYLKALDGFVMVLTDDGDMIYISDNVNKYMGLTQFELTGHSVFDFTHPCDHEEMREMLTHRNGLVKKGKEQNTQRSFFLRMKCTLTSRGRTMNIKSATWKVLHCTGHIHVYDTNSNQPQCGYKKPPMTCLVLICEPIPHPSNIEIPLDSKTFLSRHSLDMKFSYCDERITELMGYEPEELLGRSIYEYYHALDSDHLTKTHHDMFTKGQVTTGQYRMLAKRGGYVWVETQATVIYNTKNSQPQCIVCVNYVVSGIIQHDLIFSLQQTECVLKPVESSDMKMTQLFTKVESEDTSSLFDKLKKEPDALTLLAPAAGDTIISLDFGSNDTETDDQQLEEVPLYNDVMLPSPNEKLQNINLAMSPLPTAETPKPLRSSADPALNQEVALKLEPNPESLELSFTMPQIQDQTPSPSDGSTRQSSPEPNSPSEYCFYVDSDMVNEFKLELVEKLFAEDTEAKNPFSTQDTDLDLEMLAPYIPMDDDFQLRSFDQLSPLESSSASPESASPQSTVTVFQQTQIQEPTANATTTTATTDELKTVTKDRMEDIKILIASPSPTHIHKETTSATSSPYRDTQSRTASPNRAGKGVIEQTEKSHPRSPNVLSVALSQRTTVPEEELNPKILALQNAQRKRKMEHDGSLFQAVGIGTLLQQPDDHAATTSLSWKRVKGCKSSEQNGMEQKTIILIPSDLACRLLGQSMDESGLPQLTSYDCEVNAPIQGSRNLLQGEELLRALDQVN

Row | SMILES | IC50 ([1]; HIF-2a PANC, mean of runs) | IC50 ([1]; HIF-2a PANC, run 1) [µM] | IC50 ([1]; HIF-2a PANC, run 2) [µM] | IC50 ([1]; HIF-2a, mean of runs) | IC50 ([1]; HIF-2a, run 1) [µM] | IC50 ([1]; HIF-2a, run 2) [µM] | IC50 ([2]; run 1) [µM] | IC50 ([2]; run 2) [µM] | IC50 ([2]; mean of runs)
1 | CCOC(=O)C1CCN(C(=O)Nc2ccc3snnc3c2)CC1 | inactive | 19.4 | 56.8 | inactive | 8.45 | 14.8 | > 99 | > 99 | –
2 | CC(=O)Nc1ccc(NC(=O)c2ccc(-c3ccnn3C)c3ccoc23)cc1 | 1.85 µM | 2.03 | 1.67 | 0.858 µM | 0.938 | 0.777 | 3.89 | > 99 | –
3 | CC(=O)/C=C1/C(=O)Nc2ccccc21 | > 99 µM (inactive) | > 99 | > 99 | inactive | 13.9 | 14.2 | 32.6 | 26.2 | inactive
4 | COC(=O)COc1ccc(-c2nccc(-c3ccccn3)n2)cc1 | 2.88 µM | 3.28 | 2.48 | 1.07 µM | 1.04 | 1.11 | 0.274 | 0.637 | inactive
5 | O=C(c1ccccc1)N1CCSc2sccc2C1=O | 18.9 µM | 28 | 9.87 | 6.78 µM | 6.98 | 6.58 | 57.6 | 55.1 | 56.4 µM
6 | O=C(NCc1ccccc1)C(=O)Nc1cccc(C(=O)O)c1 | > 99 µM (inactive) | > 99 | > 99 | 9.97 µM | 9.98 | 9.95 | > 99 | > 99 | –
7 | O=C(OCC(F)(F)F)c1cccc(COc2ccc3ccccc3c2)c1 | – | > 99 | < 30 | 2.86 µM | 2.92 | 2.79 | > 99 | > 99 | –
8 | FC(F)(F)c1cnc(NNC(=S)Nc2ccccc2)c(Cl)c1 | 2.3 µM | 1.23 | 3.36 | 7.78 µM | 8.41 | 7.15 | 13.9 | 44 | 28.9 µM
9 | Cc1cc(NC(=O)c2ccccc2)c(Cl)cc1N | inactive | 10.1 | 19.5 | 2.75 µM | 2.56 | 2.94 | 10 | 12.9 | 11.5 µM
10 | CC(=O)N/N=C\c1cccc(OC/C=C/c2ccccc2)c1 | > 99 µM (inactive) | > 99 | > 99 | < 10 µM | < 10 | < 30 | > 99 | > 99 | –
11 | Cc1ccc(C)c(-c2nc3cc(N)ccc3o2)c1 | 2.65 µM | 2.6 | 2.7 | 3.03 µM | 3.35 | 2.7 | > 99 | 56.4 | –
12 | COCCn1c(C)cc(C(=O)CSc2nnc3ccccn23)c1C | inactive | 81.3 | 31 | 7.43 µM | 7.46 | 7.41 | 28.9 | 26.2 | 27.5 µM
13 | O=C(O)c1cccc(NC(=S)NC(=O)c2ccc3ccccc3c2)c1 | – | < 30 | > 99 | inactive | 10.9 | 9.32 | > 99 | > 99 | –
